One test relates to NOMO-1. It counts as cell-based. The procedure: (§1) Cell lines were cultured in media that is optimal for their growth at 5% CO2, 37° C. in a tissue culture incubator. Prior to seeding for the proliferation assay, the cells were split at least 2 days before the assay to ensure optimal growth density. […] Cell viability and cell density were determined using a cell counter (Vi-Cell XR Cell Viability Analyzer, Beckman Coulter). […] Cells were seeded at a density of 1,000 cells per well in 45 μL of standard growth media. Plates were incubated at 5% CO2, 37° C. overnight in a tissue culture incubator. […] Each drug concentration was tested in quadruplets. […] Plates were incubated at room temperature for 10 minutes to stabilize luminescent signals prior to reading using a luminescence reader (EnVision Multilabel Plate Reader, PerkinElmer). To evaluate the effect of the drug treatments, luminescent counts from wells containing untreated cells (100% viability) were used to normalize treated samples.

A further test concerns EOL-1. Format: cell-based. The procedure:
as §1

[1] abbreviates: CD74 ADC with the named linker-payload, 5 days.
[2] abbreviates: CD74 ADC with the named linker-payload, 5 days, read-out: NOMO-1 IC50.
Setting [3] is: CD74 ADC with the named linker-payload, 5 days, read-out: EOL-1 IC50.

Molecules are shown by their SMILES. Where a name gives a salt, the structure may show the parent alone. Read-outs that look alike come from different tables or passages of the source.

These results are taken from patent US20230081720A1, “MCL-1 INHIBITOR ANTIBODY-DRUG CONJUGATES AND METHODS OF USE” (NOVARTIS AG, priority 2019, published 2023).

What is called IC50 is the concentration needed to halve the response being measured. On to `COc1ccccc1-c1nccc(COc2ccccc2C[C@@H](Oc2ncnc3sc(-c4ccc(F)cc4)c(-c4ccc(OCCN5CC[N+](C)(Cc6ccc(NC(=O)[C@H](CCCNC(N)=O)NC(=O)[C@@H](NC(=O)CCOCCN7C(=O)C=CC7=O)C(C)C)cc6COCc6cn(CCOC(=O)NS(=O)(=O)NCCOCCO[C@@H]7O[C@H](CO)[C@@H](O)[C@H](O)[C@H]7O)nn6)CC5)c(Cl)c4C)c23)C(=O)O)n1` [L63-P1, trifluoroacetate], for which the “NOMO-1 Amax” value in the test with NOMO-1 (setting [1]) was 61.25. Further, the IC50 with NOMO-1 (setting [2]) is 0.714 nM.
Consider `COc1ccccc1-c1nccc(COc2ccccc2C[C@@H](Oc2ncnc3sc(-c4ccc(F)cc4)c(-c4ccc(OCCN5CC[N+](C)(Cc6ccc(NC(=O)[C@H](CCCNC(N)=O)NC(=O)[C@@H](NC(=O)CCOCCN7C(=O)C=CC7=O)C(C)C)cc6COCc6cn(CCOC(=O)NS(=O)(=O)NCCOCCOCCO[C@@H]7O[C@H](CO)[C@@H](O)[C@H](O)[C@H]7O)nn6)CC5)c(Cl)c4C)c23)C(=O)O)n1` [L62-P1, trifluoroacetate], for which the “NOMO-1 Amax” value in the test on NOMO-1 (setting [1]) is on record as 65.18. Moreover, the IC50 stood at 3.41 nM in the test on NOMO-1 (setting [2]) and 0.771 nM in the test with EOL-1 (setting [3]). Besides, the “EOL-1 Amax” value in the test with EOL-1 (setting [1]) is 83.03.
The like results for `COc1ccccc1-c1nccc(COc2ccccc2C[C@@H](Oc2ncnc3sc(-c4ccc(F)cc4)c(-c4ccc(OCCN5CC[N+](C)(Cc6ccc(NC(=O)[C@H](CCCNC(N)=O)NC(=O)[C@@H](NC(=O)CCOCCN7C(=O)C=CC7=O)C(C)C)cc6CN(C)C(=O)C[C@H](NC(=O)[C@@H]6O[C@H](O)[C@@H](O)[C@H](O)[C@H]6O)C(=O)O)CC5)c(Cl)c4C)c23)C(=O)O)n1` [L68-P1] were, in that order, 91.25, 6.91 nM, 0.788 nM and 127.3.
Taken in the same sequence, the figures for `COc1ccccc1-c1nccc(COc2ccccc2C[C@@H](Oc2ncnc3sc(-c4ccc(F)cc4)c(-c4ccc(OCCN5CC[N+](C)(Cc6ccc(NC(=O)[C@H](CCCNC(N)=O)NC(=O)[C@@H](NC(=O)CCOCCN7C(=O)C=CC7=O)C(C)C)cc6CN(C)C(=O)[C@H](CCCCNC(=O)CS(=O)(=O)O)NC(=O)CS(=O)(=O)O)CC5)c(Cl)c4C)c23)C(=O)O)n1` [L78-P1, 4-(2-(4-(4-((R)-1-carboxy-2-(2-((2-(2-methoxyphenyl)pyrimidin-4-yl)methoxy)phenyl)ethoxy)-6-(4-fluorophenyl)thieno[2,3-d]pyrimidin-5-yl)-2-chloro-3-methylphenoxy)ethyl)-1-(4-((S)-2-((S)-2-(3-(2-(2,5-dioxo-2,5-dihydro-1H-pyrrol-1-yl)ethoxy)propanamido)-3-methylbutanamido)-5-ureidopentanamido)-2-(((S)-N-methyl-2,6-bis(2-sulfoacetamido)hexanamido)methyl)benzyl)-1-methylpiperazin-1-ium] were 53.4, 3.73 nM, 0.43 nM and 87.22.
Turning to `COc1ccccc1-c1nccc(COc2ccccc2C[C@@H](Oc2ncnc3sc(-c4ccc(F)cc4)c(-c4ccc(OCCN5CC[N+](C)(Cc6ccc(NC(=O)[C@H](CCCNC(N)=O)NC(=O)[C@@H](NC(=O)CCOCCN7C(=O)C=CC7=O)C(C)C)cc6CN(C)C(=O)CN(C)C(=O)CN(C)C(=O)CN(C)C(=O)CN(C)C(=O)CN(C)C(=O)CN(C)C(=O)CN(C)C(=O)CN(C)C(=O)CN(C)C(=O)CN(C)C(=O)CN(C)C(=O)CN(C)C(=O)CCC(=O)O)CC5)c(Cl)c4C)c23)C(=O)O)n1` [L35-P1], the half-maximal inhibitory concentration (IC50) in the test with NOMO-1 came to 6.9 nM; with EOL-1 it was 0.894 nM. In addition, in the test with NOMO-1 (setting [1]), the “NOMO-1 Amax” value is recorded as 62.73. Besides, the “EOL-1 Amax” value in the test with EOL-1 (setting [1]) is 75.56.
The like results for `COc1ccccc1-c1nccc(COc2ccccc2C[C@@H](Oc2ncnc3sc(-c4ccc(F)cc4)c(-c4ccc(OCCN5CC[N+](C)(Cc6ccc(NC(=O)[C@H](CCCNC(N)=O)NC(=O)[C@@H](NC(=O)CCOCCN7C(=O)C=CC7=O)C(C)C)cc6CN(C)C(=O)C[C@H](NC(=O)CS(=O)(=O)O)C(=O)O)CC5)c(Cl)c4C)c23)C(=O)O)n1` [L79-P1, 4-(2-(4-(4-((R)-1-carboxy-2-(2-((2-(2-methoxyphenyl)pyrimidin-4-yl)methoxy)phenyl)ethoxy)-6-(4-fluorophenyl)thieno[2,3-d]pyrimidin-5-yl)-2-chloro-3-methylphenoxy)ethyl)-1-(2-(((S)-3-carboxy-N-methyl-3-(2-sulfoacetamido)propanamido)methyl)-4-((S)-2-((S)-2-(3-(2-(2,5-dioxo-2,5-dihydro-1H-pyrrol-1-yl)ethoxy)propanamido)-3-methylbutanamido)-5-ureidopentanamido)benzyl)-1-methylpiperazin-1-ium] were, in that order, 3.14 nM, 0.492 nM, 56.07 and 91.3.
The like results for `COc1ccccc1-c1nccc(COc2ccccc2C[C@@H](Oc2ncnc3sc(-c4ccc(F)cc4)c(-c4ccc(OCCN5CC[N+](C)(Cc6ccc(NC(=O)[C@H](CCCNC(N)=O)NC(=O)[C@@H](NC(=O)CCOCCN7C(=O)C=CC7=O)C(C)C)cc6CN(C)C(=O)[C@H](N)CS(=O)(=O)O)CC5)c(Cl)c4C)c23)C(=O)O)n1` [L86-P1] were, in that order, 7.47 nM, 0.721 nM, 74.52 and 105.5.
`COCCOCCOCCOCCOCCOCCOCCOCCOCCOCCOCCOCCC(=O)N[C@@H](CCC(=O)O)C(=O)N(C)Cc1cc(NC(=O)[C@H](CCCNC(N)=O)NC(=O)[C@@H](NC(=O)CCOCCN2C(=O)C=CC2=O)C(C)C)ccc1C[N+]1(C)CCN(CCOc2ccc(-c3c(-c4ccc(F)cc4)sc4ncnc(O[C@H](Cc5ccccc5OCc5ccnc(-c6ccccc6OC)n5)C(=O)O)c34)c(C)c2Cl)CC1` [L72-P1]: the “NOMO-1 Amax” value with NOMO-1 (setting [1]) is given as 57.68. The “EOL-1 Amax” value in the test on EOL-1 (setting [1]) is given as 109.8. Further, the IC50 in the test with EOL-1 (setting [3]) worked out at 0.386 nM.
For the compound `COc1ccccc1-c1nccc(COc2ccccc2C[C@@H](Oc2ncnc3sc(-c4ccc(F)cc4)c(-c4ccc(OCCN5CC[N+](C)(Cc6ccc(NC(=O)[C@H](CCCNC(N)=O)NC(=O)[C@@H](NC(=O)CCOCCN7C(=O)C=CC7=O)C(C)C)cc6CN(C)C(=O)CN(CC(=O)O)CC(=O)O)CC5)c(Cl)c4C)c23)C(=O)O)n1` [L67-P1, 1-(2-((2-(bis(carboxymethyl)amino)-N-methylacetamido)methyl)-4-((S)-2-((S)-2-(3-(2-(2,5-dioxo-2,5-dihydro-1H-pyrrol-1-yl)ethoxy)propanamido)-3-methylbutanamido)-5-ureidopentanamido)benzyl)-4-(2-(4-(4-((R)-1-carboxy-2-(2-((2-(2-methoxyphenyl)pyrimidin-4-yl)methoxy)phenyl)ethoxy)-6-(4-fluorophenyl)thieno[2,3-d]pyrimidin-5-yl)-2-chloro-3-methylphenoxy)ethyl)-1-methylpiperazin-1-ium], the IC50 in the test with NOMO-1 turned out to be 2.49 nM; in the test with EOL-1, 0.261 nM. Moreover, in the test on NOMO-1 (setting [1]), the “NOMO-1 Amax” value is 79.39. The “EOL-1 Amax” value in the test with EOL-1 (setting [1]) is 119.3.
Regarding `COc1ccccc1-c1nccc(COc2ccccc2C[C@@H](Oc2ncnc3sc(-c4ccc(F)cc4)c(-c4ccc(OCCN5CC[N+](C)(Cc6ccc(NC(=O)[C@H](CCCNC(N)=O)NC(=O)[C@@H](NC(=O)CCOCCN7C(=O)C=CC7=O)C(C)C)cc6CN(C)C(=O)C[C@H](NC(=O)OC6O[C@H](C(=O)O)[C@@H](O)[C@H](O)[C@H]6O)C(=O)O)CC5)c(Cl)c4C)c23)C(=O)O)n1` (stereo partly shown) [L69-P1], the “NOMO-1 Amax” value in the test on NOMO-1 (setting [1]) is on record as 95.03. Further, the figures for the concentration for half-maximal inhibition (IC50) in the test with NOMO-1 (setting [2]) and in the test on EOL-1 (setting [3]) were 14.8 nM and 0.704 nM, respectively. The “EOL-1 Amax” value in the test on EOL-1 (setting [1]) is 159.6.
